From patent publication US20040043083A1, “Anticancer composition comprising sesquiterpenes isolated from resina ferulae” (priority 2000, published 2004) come the findings set out here.

Common to all, as to type: cell-based
Assay [1] concerns HCT-15 (human colic cancer cell line). Put plainly: Inhibition of human cancer cell line proliferation (SRB method), HCT-15. The note with it: HCT-15 cells, 48 hours. As for the experimental part:
(§1) A549 (human lung cancer cell line), SK-OV-3 (human ovary cancer cell line), SK-MEL-2 ([…] melanoma cancer cell line), XF498 (Human CNS cancer cell line) and HCT-15 (human colic cancer cell line) were obtained from NCI of U.S. A. and subjected to subculture. The inhibition of the cancer cell line proliferation was determined by the SRB (sulforhodamine B) method in accordance with the procedure described by Skehan, P. et al. (J. Nat'l. Canc. Inst., 82, p1107, 1990) as follows.
(§2) 1) Each of the subcultured cancer cell lines was collected from the surface of the culture vessel, treated with a trypsin-CDTA solution, diluted, and added to each wall of a 96-well plat bottom microplate (Falcon Co.) in an amount of 5×10^3 (A549, HCT-15), 1×10^4 (SK-MEL-2, XF498) or 2×10^4 (SK-OV-3) cells/well, followed by incubation in a CO2 incubator to anchor the cells to the bottom surface. Then the culture medium was removed from the plate with suction, a solution containing a predetermined amount of a test sample (test solution) dissolved in culture medium was added to each well; and the mixture was futher cultured for 48 hours.
(§3) 2) Thereafter, the culture medium was removed from the plate with suction, and […] of 10% TCA (trichloro acetic acid) was added to each well. The plate was allowed to stand at room temperature for one hour to fix the cells, and was washed several times with distilled water to completely remove excess TCA and then dried.
(§4) 3) Each well was treated with 100 μl of an SRB staining solution (0.4% suforhodamine in 1% acetic acid) for 30 minutes, washed several times with 1% acetic acid to remove the remaining staining solution, and dried at room temperature.
(§5) 4) After adding 100 μl of 10 mM Trisma base solution (unbuffered) to each well, the plate was shaken with a titer plate shaker for 10 minutes to elute the staining solution from the cells, and the absorbance thereof at 520 nm was determined with a microplate reader.
(§6) 5) The degree of cancer cell proliferation (% cell growth, i.e., reverse of anticancer activity) of the cell line treated with the test solution was calculated by the following numerical formula wherein C is the number of cells in a control group treated with a culture medium instead of the test solution; Tz, the number of cells at time zero; and T, the number of cells treated with the test solution calculated based on measurement. Numerical formula 1 was used when Tz>T, numerical formula 2, when Tz<T.
(§7) Numerical formula 1=[(T−Tz)/(C−Tz)]×100
(§8) Numerical formula 2=[(T−Tz)/Tz]×100
(§9) 6) The amount of the samples needed for achieving 50% inhibition of the inhibiting cancer cell proliferation (ED50) was calculated from the observed degree of cell proliferation at various concentrations of the sample using the data regression of LOTUS program.

In assay [2] the test system is SK-OV-3 (human ovary cancer cell line). Put plainly: Inhibition of human cancer cell line proliferation (SRB method), SK-OV-3. The note with it: SK-OV-3 cells, 48 hours. How it is done:
as §1, §2, §3, §4, §5, §6, §7, §8, §9

For assay [3], the system named is XF498 (human CNS cancer cell line). Put plainly: Inhibition of human cancer cell line proliferation (SRB method), XF498. The note with it: XF498 cells, 48 hours. How it is done:
as §1, §2, §3, §4, §5, §6, §7, §8, §9
For orientation: The SRB assay estimates cell density from bound dye.

Assay [4] relates to A549 (human lung cancer cell line). Put plainly: Inhibition of human cancer cell line proliferation (SRB method), A549. As to conditions: A549 cells, 48 hours. How it is done: as §1, §2, §3, §4, §5, §6, §7, §8, §9
In assay [5] the test system is SK-MEL-2 (human melanoma cancer cell line). The assay is described as follows: Inhibition of human cancer cell line proliferation (SRB method), SK-MEL-2. As to conditions: SK-MEL-2 cells, 48 hours. As for the experimental part: as §1, §2, §3, §4, §5, §6, §7, §8, §9

≈ marks a conversion by molar mass, not a printed value.

As for `N.N.[Cl][Pt][Cl]` [Cisplastine, reference compound], in assay [1], the “ED50 HCT-15” value is 3.2 µg/mL. Further, the “ED50 SK-OV-3” value in assay [2] is 1.5 µg/mL. In assay [3], the “ED50 XF498” value was determined as 1.4 µg/mL. Also, the “ED50 A549” value in assay [4] worked out at 1.8 µg/mL. Besides, in assay [5], the “ED50 SK-MEL-2” value was determined as 1.2 µg/mL.
The like results for `CC(C)=C1CCC(C)C(C)(COc2ccc3ccc(=O)oc3c2)C1CCC(=O)O` (stereo not drawn) [Compound 1, galbanic acid] were, in that order, 9.7 µg/mL (≈ 24.3 µM), 14.5 µg/mL (≈ 36.4 µM), 13.0 µg/mL (≈ 32.6 µM), 8.9 µg/mL (≈ 22.3 µM) and 12.3 µg/mL (≈ 30.9 µM).
For `C/C(=C\COc1ccc2ccc(=O)oc2c1)CC/C=C(\C)CCC(O)C(C)(C)O` (stereo not drawn) [Compound 2, karatavicinol], the “ED50 HCT-15” value in assay [1] is 7.0 µg/mL (≈ 17.5 µM). In addition, in assay [2], the “ED50 SK-OV-3” value was determined as 11.6 µg/mL (≈ 29 µM). Moreover, in assay [3], the “ED50 XF498” value was 7.5 µg/mL (≈ 18.7 µM). Moreover, the “ED50 A549” value in assay [4] came out at 5.6 µg/mL (≈ 14 µM). In addition, the “ED50 SK-MEL-2” value in assay [5] is 5.7 µg/mL (≈ 14.2 µM).
The like results for `CC(C)=CCC/C(C)=C/CC/C(C)=C/COc1ccc2ccc(=O)oc2c1` [Compound 3, umbelliprenin] were, in that order, 4.1 µg/mL (≈ 11.2 µM), 9.4 µg/mL (≈ 25.6 µM), 5.3 µg/mL (≈ 14.5 µM), 8.9 µg/mL (≈ 24.3 µM) and 6.7 µg/mL (≈ 18.3 µM).
The like results for `C=C1CC[C@@H](O)C(C)(C)C1CC/C(C)=C/COc1ccc2ccc(=O)oc2c1` (stereo partly drawn) [Compound 4, farnesiferol B] were, in that order, 4.3 µg/mL (≈ 11.2 µM), 10.0 µg/mL (≈ 26.1 µM), 7.1 µg/mL (≈ 18.6 µM), 7.2 µg/mL (≈ 18.8 µM) and 7.1 µg/mL (≈ 18.6 µM).
The like results for `C/C(=C\COc1ccc2ccc(=O)oc2c1)CC[C@@H]1C(C)(C)[C@H]2CC[C@]1(C)O2` [Compound 5, farnesiferol C] were, in that order, 4.3 µg/mL (≈ 11.2 µM), 7.2 µg/mL (≈ 18.8 µM), 5.4 µg/mL (≈ 14.1 µM), 4.2 µg/mL (≈ 11 µM) and 3.9 µg/mL (≈ 10.2 µM).
